Experimental data taken from ChEMBL document CHEMBL5154911, “Palmatine Derivatives as Potential Antiplatelet Aggregation Agents via Protein Kinase G/Vasodilator-Stimulated Phosphoprotein and Phosphatidylinositol 3-Kinase/Akt Phosphorylation” (J Med Chem, 2022).
The source made the active and inactive calls. The calls are words filed in the database; no cut-off is given here.

Legend:
[1] = Antiplatelet activity against ADP-induced C57BL/6J mouse platelet aggregation assessed as maximal aggregration rate at 10 uM preincubated for 10 mins followed by ADP addition relative to control; type: functional
[2] = Cytotoxicity against human HUVEC cells assessed as cell vaibility at 100 uM by MTS assay; type: toxicity, cell-based; settings: read-out: Activity
[3] = system: Platelet; assay: Inhibition of ADP-induced Akt activation in C57BL/6J mouse platelet assessed as reduction of AKT phosphorylation at Ser473 by western blot analysis; type: cell-based
[4] = system: Mus musculus; assay: Antiplatelet activity against ADP-induced C57BL/6J mouse platelet aggregation assessed as reduction in P-selectin surface levels at 100 mg/kg, po measured after 2 weeks by flow cytometry analysis; type: functional, organism-based
[5] = system: Mus musculus; assay: Antiplatelet activity against ADP-induced C57BL/6J mouse platelet aggregation assessed as reduction in integrin alphaIIbbeta3 surface level at 100 mg/kg, po measured after 2 weeks by flow cytometry analysis; type: functional, organism-based
[6] = system: Platelet; assay: Inhibition of ADP-induced Akt activation in C57BL/6J mouse platelets assessed as reduction in phosphorylation Akt level at Ser473 at 100 mg/kg, po measured after 2 weeks by western blot analysis; type: organism-based
[7] = system: Mus musculus; assay: Antithrombotic activity in BALB/c mouse model of carrageenan-induced thrombus formation assessed as inhibition of thrombosis rate in tail at 100 mg/kg, iv measured after 14 days; type: functional, organism-based; settings: time 14.0 day
[8] = system: Mus musculus; assay: Antiplatelet activity against ADP-induced C57BL/6J mouse platelet aggregation assessed as inhibition of platelet aggregation at 100 mg/kg, po measured after 2 weeks; type: functional, organism-based
[9] = system: Lung; assay: Antithrombotic activity in BALB/c mouse model of carrageenan-induced thrombus formation assessed as reduced thrombus formation in lung at 100 mg/kg, iv measured after 14 days by H and E staining based assay; type: functional, organism-based; settings: time 14.0 day
[10] = system: Mus musculus; assay: Antithrombotic activity in BALB/c mouse model of carrageenan-induced thrombus formation assessed as reduced serum P-selectin level at 100 mg/kg, iv measured after 14 days by ELISA; type: functional, organism-based; settings: time 14.0 day
[11] = system: Platelet; assay: Antiplatelet activity against ADP-induced C57BL/6J mouse platelet aggregation assessed as reduction in integrin alphaIIbbeta3 surface levels by measuring increase median fluorescence intensities at 10 uM incubated for 10 min by flow cytometry analysis; type: functional, cell-based
[12] = system: Platelet; assay: Antiplatelet activity against ADP-induced C57BL/6J mouse platelet aggregation assessed as reduction in P-selectin surface levels by measuring increase median fluorescence intensities at 10 uM incubated for 10 min by flow cytometry analysis; type: functional, cell-based
[13] = system: Platelet; assay: Antiplatelet activity against ADP-induced C57BL/6J mouse platelet aggregation assessed as reduction on platelet aggregation at 2.5 to 10 uM preincubated for 10 mins followed by ADP addition; type: functional, cell-based; settings: dose 2.5-10 µM, DDE = dose-dependent effect

COc1cc2c(cc1OC)-c1cc3ccc(OC)c(OCc4cccc(F)c4)c3c[n+]1CC2.[Br-]
%max [1]: 35.7%

COc1cc2c(cc1OC)-c1cc3ccc(OC)c(OCC4CCCCC4)c3c[n+]1CC2.[Br-]
%max [1]: 33.9%

COc1ccc(CNc2c(OC)ccc3cc4[n+](cc23)CCc2cc(OC)c(OC)cc2-4)c(OC)c1.[Cl-]
%max [1]: 33.5%

COc1cc2c(cc1OC)-c1cc3ccc(OC)c(OCc4ccc(C(F)(F)F)cc4)c3c[n+]1CC2.[Br-]
%max [1]: 37.7%

COc1cc2c(cc1OC)-c1c(Cc3ccccc3C#N)c3ccc(OC)c(OC)c3c[n+]1CC2.[Br-]
%max [1]: 40.2%

COc1cccc(COc2c(OC)ccc3cc4[n+](cc23)CCc2cc(OC)c(OC)cc2-4)c1.[Br-]
%max [1]: 34.8% | viability at 100 µM [2]: 90%

COc1cc2c(cc1OC)-c1cc3ccc(OC)c(OCC4CCC4)c3c[n+]1CC2.[Br-]
%max [1]: 34.4%

C=CCOc1c(OC)ccc2cc3[n+](cc12)CCc1cc(OC)c(OC)cc1-3.[Br-]
%max [1]: 34.3%

COc1cc2c(cc1OC)-c1cc3ccc(OC)c(OCc4cccc(Br)c4)c3c[n+]1CC2.[Br-]
%max [1]: 39.3%

COc1cc2c(cc1OC)-c1cc3ccc(OC)c(OC(=O)c4ccccc4)c3c[n+]1CC2.[Cl-]
%max [1]: 42.6%

COc1cc2c(cc1OC)-c1cc3ccc(OC)c(OC(=O)c4ccccc4C)c3c[n+]1CC2.[Cl-]
%max [1]: 38%

CCCCNc1c(OC)ccc2cc3[n+](cc12)CCc1cc(OC)c(OC)cc1-3.[Cl-]
%max [1]: 33.4%

CCCCOc1c(OC)ccc2cc3[n+](cc12)CCc1cc(OC)c(OC)cc1-3.[Br-]
%max [1]: 34.4%

COc1cc2c(cc1OC)-c1cc3ccc(OC)c(NC(=O)C4CCCCC4)c3c[n+]1CC2.[Cl-]
%max [1]: 37.7%

COc1cc2c(cc1OC)-c1c(Cc3ccc(C)cc3)c3ccc(OC)c(OC)c3c[n+]1CC2.[Br-]
%max [1]: 38.3%

COc1cc2c(cc1OC)-c1cc3ccc(OC)c(OCC4CCCC4)c3c[n+]1CC2.[Br-]
%max [1]: 35.4%

CCCCCNc1c(OC)ccc2cc3[n+](cc12)CCc1cc(OC)c(OC)cc1-3.[Cl-]
%max [1]: 37.8%

COc1ccc2cc3[n+](cc2c1OC)CCc1cc2c(cc1-3)OCO2 [BERBERINE]
%max [1]: 27.5% | inhibition [3]: Active | Activity [4]: Active | Activity [5]: Active | inhibition [6]: Active | Activity [7]: Active | Activity [8]: Active | Activity [9]: Active | Activity [10]: Active

COc1cc2c(cc1OC)-c1cc3ccc(OC)c(OCc4ccc(C(C)C)cc4)c3c[n+]1CC2.[Br-]
%max [1]: 37.5%

COc1cc2c(cc1OC)-c1cc3ccc(OC)c(NCc4cccc(C#N)c4)c3c[n+]1CC2.[Cl-]
%max [1]: 36.3%

CCC(=O)Oc1c(OC)ccc2cc3[n+](cc12)CCc1cc(OC)c(OC)cc1-3.[Cl-]
%max [1]: 40.1%

COc1cc2c(cc1OC)-c1cc3ccc(OC)c(NC(=O)c4cccc(F)c4)c3c[n+]1CC2.[Cl-]
%max [1]: 40.6%

CCCCC(=O)Nc1c(OC)ccc2cc3[n+](cc12)CCc1cc(OC)c(OC)cc1-3.[Cl-]
%max [1]: 37.2%

COc1cc2c(cc1OC)-c1cc3ccc(OC)c(OCc4ccc(C)cc4)c3c[n+]1CC2.[Br-]
%max [1]: 35.2%

COc1cc2c(cc1OC)-c1cc3ccc(OC)c(NCc4ccccc4)c3c[n+]1CC2.[Cl-]
%max [1]: 37.3%

Br.COc1cc2c(cc1OC)-c1cc3ccc(OC)c(OCc4cccc([N+](=O)[O-])c4)c3c[n+]1CC2
%max [1]: 33.3%

C/C=C/Cc1c2[n+](cc3c(OC)c(OC)ccc13)CCc1cc(OC)c(OC)cc1-2.[Br-]
%max [1]: 40.3%

COc1cc2c(cc1OC)-c1cc3ccc(OC)c(OCC4CC4)c3c[n+]1CC2.[Br-]
%max [1]: 30.4% | viability at 100 µM [2]: 90% | Activity [11]: Active | Activity [12]: Active | inhibition [3]: Active | Activity [13]: Dde

CCOc1c(OC)ccc2cc3[n+](cc12)CCc1cc(OC)c(OC)cc1-3.[Br-]
%max [1]: 34.6%

CCCC(=O)Oc1c(OC)ccc2cc3[n+](cc12)CCc1cc(OC)c(OC)cc1-3.[Cl-]
%max [1]: 39.8%

COc1cc2c(cc1OC)-c1cc3ccc(OC)c(NC(=O)c4ccc(F)cc4)c3c[n+]1CC2.[Cl-]
%max [1]: 37.1%

COc1cc2c(cc1OC)-c1cc3ccc(OC)c(OS(=O)(=O)c4ccccc4)c3c[n+]1CC2.O=[S-](=O)c1ccccc1
%max [1]: 39.4%

COc1cc2c(cc1OC)-c1cc3ccc(OC)c(OS(=O)(=O)c4ccc([N+](=O)[O-])cc4)c3c[n+]1CC2.O=[SH](=O)c1ccccc1
%max [1]: 37.7%

COc1cc2c(cc1OC)-c1cc3ccc(OC)c(NCc4ccc(F)cc4)c3c[n+]1CC2.[Cl-]
%max [1]: 34.2%

COc1cc2c(cc1OC)-c1cc3ccc(OC)c(NC(=O)C45CC6CC(CC(C6)C4)C5)c3c[n+]1CC2.[Cl-]
%max [1]: 34.7%

COc1cc2c(cc1OC)-c1c(Cc3cc(C)cc(C)c3)c3ccc(OC)c(OC)c3c[n+]1CC2.[Br-]
%max [1]: 39.4%

COC(=O)/C=C/c1ccc(Cc2c3[n+](cc4c(OC)c(OC)ccc24)CCc2cc(OC)c(OC)cc2-3)cc1.[Br-]
%max [1]: 38.2%

Br.COc1cc2c(cc1OC)-c1c(Cc3ccc([N+](=O)[O-])cc3)c3ccc(OC)c(OC)c3c[n+]1CC2
%max [1]: 38.6%

COc1cc(COc2c(OC)ccc3cc4[n+](cc23)CCc2cc(OC)c(OC)cc2-4)cc(OC)c1.[Br-]
%max [1]: 38.4%

COc1cc2c(cc1OC)-c1cc3ccc(OC)c(NC(=O)c4ccccc4)c3c[n+]1CC2.[Cl-]
%max [1]: 35.8%

Br.COc1cc2c(cc1OC)-c1cc3ccc(OC)c(OCc4ccc([N+](=O)[O-])cc4)c3c[n+]1CC2
%max [1]: 37.9%

CCC(=O)Nc1c(OC)ccc2cc3[n+](cc12)CCc1cc(OC)c(OC)cc1-3.[Cl-]
%max [1]: 34.5%

COc1cc2c(cc1OC)-c1c(Cc3cccc(C)c3)c3ccc(OC)c(OC)c3c[n+]1CC2.[Br-]
%max [1]: 41.4%

COc1cc2c(cc1OC)-c1cc3ccc(OC)c(OCCC4CCCCC4)c3c[n+]1CC2.[Br-]
%max [1]: 36.5%

COc1cc2c(cc1OC)-c1cc3ccc(OC)c(OCc4ccccc4C#N)c3c[n+]1CC2.[Br-]
%max [1]: 30.5% | viability at 100 µM [2]: < 60% | Activity [11]: Active | Activity [12]: Active | inhibition [3]: Active | Activity [13]: Dde

COc1ccc(C(=O)Nc2c(OC)ccc3cc4[n+](cc23)CCc2cc(OC)c(OC)cc2-4)cc1.[Cl-]
%max [1]: 38.5%

COc1cc2c(cc1OC)-c1c(C3C=CCCC3)c3ccc(OC)c(OC)c3c[n+]1CC2.[Br-] (centres undefined)
%max [1]: 39.8%

Br.COc1cc2c(cc1OC)-c1cc3ccc(OC)c(OCc4ccccc4[N+](=O)[O-])c3c[n+]1CC2
%max [1]: 39.7%

COc1cc2c(cc1OC)-c1cc3ccc(OC)c(OCc4ccc(C#N)cc4)c3c[n+]1CC2.[Br-]
%max [1]: 42.1%

C=CCc1c2[n+](cc3c(OC)c(OC)ccc13)CCc1cc(OC)c(OC)cc1-2.[Br-]
%max [1]: 36.5%

CCCC(=O)Nc1c(OC)ccc2cc3[n+](cc12)CCc1cc(OC)c(OC)cc1-3.[Cl-]
%max [1]: 34.3%

COc1cc2c(cc1OC)-c1cc3ccc(OC)c(NC(=O)C4CCCC4)c3c[n+]1CC2.[Cl-]
%max [1]: 34.9%

COc1cc2c(cc1OC)-c1cc3ccc(OC)c(OCc4cccc(C#N)c4)c3c[n+]1CC2.[Br-]
%max [1]: 35.5%

COc1cc2c(cc1OC)-c1cc3ccc(OC)c(NCc4ccc(Cl)cc4)c3c[n+]1CC2.[Cl-]
%max [1]: 31.6% | Activity [11]: Active | Activity [12]: Active | inhibition [3]: Active | Activity [13]: Dde

COc1cc2c(cc1OC)-c1cc3ccc(OC)c(OCc4ccccc4)c3c[n+]1CC2.[Br-]
%max [1]: 36.9%

COc1ccc(CNc2c(OC)ccc3cc4[n+](cc23)CCc2cc(OC)c(OC)cc2-4)cc1.[Cl-]
%max [1]: 35.6%

COc1cc2c(cc1OC)-c1cc3ccc(OC)c(OCc4ccccc4C)c3c[n+]1CC2.[Br-]
%max [1]: 37.8%

COc1cc2c(cc1OC)-c1cc3ccc(OC)c(OC)c3c[n+]1CC2 [PALMITINE]
%max [1]: 38.4%

COc1cc2c(cc1OC)-c1cc3ccc(OC)c(NCc4ccc(C)cc4)c3c[n+]1CC2.[Cl-]
%max [1]: 33.2%

CCCCCCCOc1c(OC)ccc2cc3[n+](cc12)CCc1cc(OC)c(OC)cc1-3.[Br-]
%max [1]: 35.3%

COc1cc2c(cc1OC)-c1cc3ccc(OC)c(OCC(C)C)c3c[n+]1CC2.[Br-]
%max [1]: 33.4%
